The values below come from US20220143128A1, “METHODS FOR TREATING TRAUMATIC BRAIN INJURY” (BCell Solutions, Inc., priority 2018, published 2022).

Data set [1] has as its system cell surface CLIP on immune cells in the spleen. The data set is described as follows: Dose response of CD74 cleavage inhibitors on cell surface CLIP in the spleen after FPI. In kind it is in vivo. The note with it: for cell surface CLIP on immune cells in the spleen / optimal dose to reduce CLIP after FPI: administered 30 min after FPI, spleen at 1 day post-FPI. On the procedure: FIGS. 5A-5C is a set of bar graphs showing a dose response curve of inhibitors of various specific mechanisms of cleavage of full-length CD74 into CLIP 24 hours after FPI.
In addition to inhibiting MIF-binding to CD74, we have reduced the level of CLIP by inhibiting the distinct mechanisms by which CD74 is cleaved. Drugs that inhibit CD74 cleavage have been administered 30 min after FPI and the levels of CLIPs in the spleen have been assessed at 1 day post-FPI. […] We also found, using the proteasomal inhibitor, Bortezomib (PS341), that this compound was most efficacious at reducing cell-surface CLIP on B cells at 0.1 mg·kg, i.p. (FIG. 5B). Finally, Cystatin S is an inhibitor of Cathepsin S, which cleaves CD74 in B cells, dendritic cells, and macrophages^11,12. […] The optimal dosage is 50 mg/kg (FIG. 5C). At concentrations greater than 50 mg/kg, the compound appeared to be toxic under the tested conditions.

Data set [2] relates to CLIP+ B cells in the brain. The data set is described as follows: Brain flow cytometry for CLIP+ B cells after fluid percussion injury (FPI). In kind it is in vivo, mouse. Here is the method:
The contributions of full-length cell-surface CD74 and its proteolytic products (CLIPs) in the pathogenic mechanisms that follow TBI were assessed. First, we determined if full-length CD74 on B cells was altered after fluid percussion injury (FPI) in an FPI model of TBI. A mouse model of TBI was produced and splenoctyes from those mice were isolated following FPI. The model, referred to as the “fluid percussion injury model”, is referenced in Tobin et al Acta Neuropathologica Communications 2014. Splenocytes were stained with anti-CD19 for B cells and counterstained with anti-CD74.
In order to address the innate immune components of CD74, a series of experiments in which MIF-binding to CD74 was antagonized at 30 min after FPI were performed. MIF mRNA levels are elevated after TBI. This occurs as a part of the innate immune response, via MIF-binding to, and signaling through cell surface CD74^35. We utilized ISO1, a small molecule that inhibits MIF-binding to CD74, to determine whether inhibition of MIF-binding would alter FPI-induced, CLIP-related cellular (FIG. 2) and neuroanatomical outcomes (FIGS. 3 and 4). ISO1 was administered at 30 mins after FPI and performed brain flow cytometry to assess what percent of leukocytes are CLIP+ B cells. It should be noted that less than 0.001 B cells enter the brain in naïve mice so they are not included in the graph.
(In general: In flow cytometry, cells or beads pass a laser one at a time.)

The subject of data set [3] is FJC-labeled cells in the perilesion area. The data set is described as follows: Fluorojade C (FJC) histology of neurodegeneration in peri-injury cortex after FPI. The class given is in vivo, mouse. The settings on record: 10 mg/kg at 30 mins after FPI; 3 days after FPI. On the procedure:
FIG. 3A is a photomicrograph depicting FJC-staining in the peri-lesion area of a mouse treated with DMSO 30 mins after FPI. 3B is a comparative photomicrograph from a mouse treated with ISO1 at 30 mins after FPI. […] N=6 per group.
We assessed the effects of 10 mg/kg of ISO1 administered at 30 mins after FPI on neurodegeneration (FIG. 3), and the astrocytic response (FIG. 4), in peri-injury cortex, at 3 days after FPI.

Another data set concerns GFAP+ astrocytes. The data set is described as follows: GFAP-labeling of the astrocytic response in perilesion cortex after FPI. In kind it is in vivo, mouse. The note with it: treatment at 30 mins after FPI (ISO1 10 mg/kg), 3 days after FPI.
For the next data set, the system named is CLIPs in MHCII. The settings on record: treatment with Cystatin S; literature reference; cited from earlier work.

Entries after “also recorded” stand apart in the source; their conditions may differ.

With `CC(C)C[C@H](NC(=O)[C@H](Cc1ccccc1)NC(=O)c1cnccn1)B(O)O` [Bortezomib], the “dose most efficacious at reducing cell-surface CLIP on B cells” value in data set [1] (i.p., 30 min after FPI, 24 hours after FPI) is 0.1 mg·kg.
In the case of `C[C@H]1CCC/C=C/[C@@H]2C[C@H](O)C[C@H]2[C@H](O)/C=C/C(=O)O1` [Brefeldin A], in data set [1], the “cell surface CLIP on immune cells in the spleen” value was “reduces cell surface CLIP on immune cells in the spleen” and the “optimal dose to reduce CLIP after FPI” value worked out at 5 mg/kg.
`COC(=O)CC1CC(c2ccc(O)cc2)=NO1` (centres unmarked) [ISO1, 4,5-Dihydro-3-(4-hydroxyphenyl)-5-isoxazoleacetic acid methyl ester]: the “percent of CLIP+ B cells in the brain” value in data set [2] (administered at 30 min after FPI, brain at 24 hrs after FPI) was “significantly reduced the percentage of CLIP+ B cells in the brain; also recorded: reduced the percent of B cells that express CLIP in the brain”. Further, the “dose providing the most significantly robust decrease in the percent of CLIP+ B cells entering the brain” value in data set [2] (at 30 mins after FPI) came out at 10 mg/kg. Besides, the “neurodegeneration (total number of FJC-labeled cells in the perilesion area)” value in data set [3] is reported as “no effect on neurodegeneration; also recorded: no effect on the total number of FJC-labeled cells”. Further, the “astrocytic response (GFAP-labeling) in perilesion cortex” value in the data set with GFAP+ astrocytes was “significantly reduced the peak astrocyte response; also recorded: significantly reduced GFAP-labeling”.

B1: Cystatin S: inhibitor of Cathepsin S, which cleaves CD74 in B cells, dendritic cells, and macrophages (protein, UniProt P01036 21-141, looked up)
Cystatin-S: SSSKEENRIIPGGIYDADLNDEWVQRALHFAISEYNKATEDEYYRRPLQVLRAREQTFGGVNYFFDVEVGRTICTKSQPNLDTCAFHEQPELQKKQLCSFEIYEVPWEDRMSLVNSRCQEA
Regarding B1, the “concentrations at which the compound appeared to be toxic” value in data set [1] (FPI mice, under the tested conditions) was “greater than 50 mg/kg”. Also, in data set [1], the “cell surface CLIP on immune cells in the spleen” value is “reduction in immune cell-surface CLIP; also recorded: reduced immune cell-surface CLIP” and the “optimal dose to reduce CLIP after FPI” value was 50 mg/kg. Besides, the “level of CLIPs in MHCII” value in the data set with CLIPs in MHCII is reported as “reduces the level of CLIPs in MHCII”.
